In patent US8716493B2, “Multicyclic compounds and the use thereof” (Cephalon, Inc., priority 2000, dated 2014):
Where a name gives a salt, the structure may show the parent alone.

Target: recombinant human PARP (Homo sapiens, UniProt P09874)
Test: Measurement of PARP enzymatic activity (transfer of radiolabeled ADP-ribose from NAD+ to protein acceptor)
Format: biochemical
Conditions: 3 uM; Table 3
Procedure: PARP activity was monitored by transfer of radiolabeled ADP-ribose units from [^32]NAD^+ to a protein acceptor such as histone or PARP itself. […] The reactions were initiated by the addition of 100 μM NAD^+ supplemented with 2 uCi [^32]NAD^+/mL and maintained at room temperature for 12 minutes. […] The amount of acid-insoluble radioactivity, corresponding to polyADP-ribosylated protein, was quantitated in a Wallac MicroBeta scintillation counter.
Single-point inhibition data were calculated by comparing PARP, VEGFR2, or MLK3 activity in the presence of inhibitor to activity in the presence of DMSO only. Inhibition curves for compounds were generated by plotting percent inhibition versus log10 of the concentration of compound. IC50 values were calculated by nonlinear regression using the sigmoidal dose-response (variable slope) equation in GraphPad Prism as follows: y=bottom+(top−bottom)/(1+10^(log IC50^−x)*Hillslope) where y is the % activity at a given concentration of compound, x is the logarithm of the concentration of compound, bottom is the % inhibition at the lowest compound concentration tested, and top is the % inhibition at the highest compound concentration examined. The values for bottom and top were fixed at 0 and 100, respectively. IC50 values were reported as the average of at least three separate determinations.
For some compounds, inhibiting data is presented as percent inhibition at a specified concentration. Compounds are tabulated together with compound number, substituents, and enzyme inhibition data.

recombinant human PARP, sequence (P09874 whole entry): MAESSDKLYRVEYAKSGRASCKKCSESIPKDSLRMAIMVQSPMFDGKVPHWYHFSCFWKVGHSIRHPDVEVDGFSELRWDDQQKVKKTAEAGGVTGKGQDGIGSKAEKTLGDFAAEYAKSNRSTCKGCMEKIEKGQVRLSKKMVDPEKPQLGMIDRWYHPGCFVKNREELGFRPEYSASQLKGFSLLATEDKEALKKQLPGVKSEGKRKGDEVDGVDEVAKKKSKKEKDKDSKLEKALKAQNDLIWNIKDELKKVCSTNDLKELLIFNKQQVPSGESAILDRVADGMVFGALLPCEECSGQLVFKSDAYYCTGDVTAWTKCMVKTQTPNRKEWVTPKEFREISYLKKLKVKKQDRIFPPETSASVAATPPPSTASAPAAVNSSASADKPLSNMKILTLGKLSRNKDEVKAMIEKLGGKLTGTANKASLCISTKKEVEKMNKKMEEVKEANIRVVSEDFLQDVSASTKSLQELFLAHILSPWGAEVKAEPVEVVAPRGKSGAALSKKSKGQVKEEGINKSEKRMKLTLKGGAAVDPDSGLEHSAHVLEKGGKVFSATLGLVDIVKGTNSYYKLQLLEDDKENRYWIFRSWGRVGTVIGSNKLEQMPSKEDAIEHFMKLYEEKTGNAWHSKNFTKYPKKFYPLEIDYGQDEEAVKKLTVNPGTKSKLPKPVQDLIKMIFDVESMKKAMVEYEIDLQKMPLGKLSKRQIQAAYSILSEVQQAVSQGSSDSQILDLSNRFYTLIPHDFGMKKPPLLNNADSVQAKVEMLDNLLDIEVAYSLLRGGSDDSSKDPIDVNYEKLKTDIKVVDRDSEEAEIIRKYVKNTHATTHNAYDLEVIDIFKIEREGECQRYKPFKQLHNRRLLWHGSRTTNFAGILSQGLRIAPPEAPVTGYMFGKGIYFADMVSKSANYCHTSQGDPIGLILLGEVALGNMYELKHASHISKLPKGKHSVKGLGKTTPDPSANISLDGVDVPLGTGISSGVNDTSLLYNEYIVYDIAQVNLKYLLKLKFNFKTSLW

`NCCCCC(N)C(=O)n1c2ccc(Br)cc2c2c3c(c4c(c21)CCC4)C(=O)NC3` [Compound 6i, 3-Bromo-11-L-lysyl-5,7,8,9,10,11-hexahydrocyclopent[a]pyrrolo[3,4-c]carbazole-7(6H)-one dihydrochloride] was tested, and the “PARP percent inhibition @ 3 uM” value was “[35% @”.

Same assay, conditions: PARP IC50 (nM), Table 8

`CN(CCc1ccccn1)C(=O)Oc1ccc2[nH]c3c4c(c5c(c3c2c1)C(=O)NC5=O)CCC4` [Compound 15h] and `O=C(NCc1cccnc1)Oc1ccc2[nH]c3c4c(c5c(c3c2c1)C(=O)NC5=O)CCC4` [Compound 15f] are within 1.5-fold of each other in IC50: 39 nM for the first, 34 nM for the second.

First: O=C1NC(=O)c2c1c1c(c3[nH]c4ccc(OC(=O)N5CCN(CCO)CC5)cc4c23)CCC1 [Compound 15l]
Second: COCCNC(=O)Oc1ccc2[nH]c3c4c(c5c(c3c2c1)C(=O)NC5=O)CCC4 [Compound 15c]
The IC50 of the first is 2.7-fold lower: 15 nM for the first, 40 nM for the second.

Same assay, conditions: Table 1; read-out: PARP IC50

Going from `NCC(=O)N1C(=O)c2c3c(c4[nH]c5ccccc5c4c2C1=O)CCC3` [Compound 1m] to `O=C1c2c3c(c4[nH]c5ccccc5c4c2C(=O)N1CCCO)CCC3` [Compound 1e], the IC50 rises from 38 nM to 946 nM (25-fold).

`NCCCC[C@H](N)C(=O)n1c2ccccc2c2c3c(c4c(c21)CCC4)C(=O)NC3` [Compound 1v, 11-L-Lysyl-5,7,8,9,10,11-hexahydrocyclopent[a]pyrrolo[3,4-c]carbazole-7(6H)-one dihydrochloride] gave an IC50 of 1400 nM.

Same assay, conditions: Table 2; read-out: PARP IC50

Compared with `COC(=O)CCC(=O)NCc1ccc2[nH]c3c4c(c5c(c3c2c1)C(=O)NC5=O)CCC4` [Compound 2z, 3-(N-(3-(Methoxycarbonyl)propanoyl)aminomethyl)-5,7,8,9,10,11-hexahydrocyclopent[a]pyrrolo[3,4-c]carbazole-5(6H), 7-dione], `CCC(=O)NCc1ccc2[nH]c3c4c(c5c(c3c2c1)C(=O)NC5=O)CCC4` [Compound 2s, 3-(Propanoylaminomethyl)-5,7,8,9,10,11-hexahydrocyclopent[a]pyrrolo[3,4-c]carbazole-5(6H), 7-dione] is 2.8-fold higher in IC50: 10 nM for the first, 28 nM for the second. The first is the more potent here.

`CC(C)(C)OC(=O)[C@@H]1CCCN1CC(=O)c1ccc2[nH]c3c4c(c5c(c3c2c1)C(=O)NC5=O)CCC4` [Compound 4b] and `COC(=O)C1CCCN1CC(=O)c1ccc2[nH]c3c4c(c5c(c3c2c1)C(=O)NC5=O)CCC4` (stereo not shown) [Compound 4a] are the same in IC50: 12 nM for the first, 12 nM for the second.

First: CCN(CC)CCOc1ccc2[nH]c3c4c(c5c(c3c2c1)C(=O)NC5=O)CCC4 [Compound 2ar]
Second: CCCN(CCC)Cc1ccc2[nH]c3c4c(c5c(c3c2c1)C(=O)NC5=O)CCC4 [Compound 2bl]
The IC50 of the first is 5.5-fold higher: 88 nM for the first, 16 nM for the second.

Compared with `CC(C)(C)OC(=O)N1CCN(C(=O)CCC(=O)c2ccc3[nH]c4c5c(c6c(c4c3c2)C(=O)NC6=O)CCC5)CC1` [Compound 4q], `O=C(CCC(=O)N1CCNCC1)c1ccc2[nH]c3c4c(c5c(c3c2c1)C(=O)NC5=O)CCC4` [Compound 4r] is 1.5-fold higher in IC50: 10 nM for the first, 15 nM for the second.

`O=C(NCc1cccnc1)c1ccc2[nH]c3c4c(c5c(c3c2c1)C(=O)NC5=O)CCC4` [Compound 2cl] and `CN(CCc1ccccn1)C(=O)c1ccc2[nH]c3c4c(c5c(c3c2c1)C(=O)NC5=O)CCC4` [Compound 2cw] are within 1.5-fold of each other in IC50: 21 nM for the first, 24 nM for the second.

First: CN(C)CCN(C)C(=O)c1ccc2[nH]c3c4c(c5c(c3c2c1)C(=O)NC5=O)CCC4 [Compound 2cu]
Second: CN(C)CCOC(=O)c1ccc2[nH]c3c4c(c5c(c3c2c1)C(=O)NC5=O)CCC4 [Compound 2cz]
The IC50 of the first is 5-fold higher: 151 nM for the first, 30 nM for the second.

Going from `NC(=O)[C@@H]1CCCN1C(=O)CCC(=O)c1ccc2[nH]c3c4c(c5c(c3c2c1)C(=O)NC5=O)CCC4` [Compound 4o] to `O=C(O)c1ccc2[nH]c3c4c(c5c(c3c2c1)C(=O)NC5=O)CCC4` [Compound 2bd], the IC50 rises from 13 nM to 85 nM (6.5-fold). The first is the more potent here.

`CC(=O)Nc1nc(-c2ccc3[nH]c4c5c(c6c(c4c3c2)C(=O)NC6=O)CCC5)c[nH]1` [Compound 3l] and `CNc1nc(-c2ccc3[nH]c4c5c(c6c(c4c3c2)C(=O)NC6=O)CCC5)cs1` [Compound 3h] are within 1.5-fold of each other in IC50: 47 nM for the first, 54 nM for the second.

`CC(C)CC(=O)NCc1nc(-c2ccc3[nH]c4c5c(c6c(c4c3c2)C(=O)NC6=O)CCC5)cs1` [Compound 3r] and `CCC(=O)NCc1nc(-c2ccc3[nH]c4c5c(c6c(c4c3c2)C(=O)NC6=O)CCC5)cs1` [Compound 3s] are the same in IC50: 56 nM for the first, 56 nM for the second.

`CCOCc1ccc2[nH]c3c4c(c5c(c3c2c1)C(=O)NC5=O)CCC4` [Compound 2de] and `CN(C)Cc1ccc2[nH]c3c4c(c5c(c3c2c1)C(=O)NC5=O)CCC4` [Compound 2bj] are within 1.5-fold of each other in IC50: 43 nM for the first, 29 nM for the second.

Compared with `NCC(=O)NCc1ccc2[nH]c3c4c(c5c(c3c2c1)C(=O)NC5=O)CCC4` [Compound 2x, 3-(N-(2-(Amino)acetyl)aminomethyl)-5,7,8,9,10,11-hexahydrocyclopent[a]pyrrolo[3,4-c]carbazole-5(6H), 7-dione], `CCCCNCc1ccc2[nH]c3c4c(c5c(c3c2c1)C(=O)NC5=O)CCC4` [Compound 2bp] is 1.8-fold lower in IC50: 45 nM for the first, 25 nM for the second.

`Nc1nc(-c2ccc3[nH]c4c5c(c6c(c4c3c2)C(=O)NC6=O)CCC5)cs1` [Compound 3a] and `NC(N)=Nc1nc(-c2ccc3[nH]c4c5c(c6c(c4c3c2)C(=O)NC6=O)CCC5)cs1` [Compound 3g] are within 1.5-fold of each other in IC50: 25 nM for the first, 19 nM for the second.

`O=C1NC(=O)c2c1c1c(c3[nH]c4ccc(CN5CCCCC5)cc4c23)CCC1` [Compound 2bx] and `O=C1NC(=O)c2c1c1c(c3[nH]c4ccc(CN5CCOCC5)cc4c23)CCC1` [Compound 2bv] are within 1.5-fold of each other in IC50: 35 nM for the first, 32 nM for the second.

Going from `COC(=O)C(=O)c1ccc2[nH]c3c4c(c5c(c3c2c1)C(=O)NC5=O)CCC4` [Compound 2ba] to `COC(=O)c1ccc2[nH]c3c4c(c5c(c3c2c1)C(=O)NC5=O)CCC4` [Compound 2bi], the IC50 rises from 12 nM to 27 nM (2.2-fold). The first is the more potent here.

Compared with `O=C1NC(=O)c2c1c1c(c3[nH]c4ccc(COCCc5ccccn5)cc4c23)CCC1` [Compound 2df], `CN(C)CC(=O)OCc1ccc2[nH]c3c4c(c5c(c3c2c1)C(=O)NC5=O)CCC4` [Compound 2bg] is 3.4-fold lower in IC50: 104 nM for the first, 31 nM for the second. The second is the more potent here.

Compared with `O=C1NC(=O)c2c1c1c(c3[nH]c4ccc(OCCN5CCOCC5)cc4c23)CCC1` [Compound 2at], `O=C(NCC1CCCO1)c1ccc2[nH]c3c4c(c5c(c3c2c1)C(=O)NC5=O)CCC4` (stereo not shown) [Compound 2cr] is 1.6-fold lower in IC50: 22 nM for the first, 14 nM for the second.

In the case of `CCNC(=O)NCc1nc(-c2ccc3[nH]c4c5c(c6c(c4c3c2)C(=O)NC6=O)CCC5)cs1` [Compound 3o], the IC50 is reported as 20 nM.

Same assay, conditions: Table 3; read-out: PARP IC50

`N#Cc1ccc2c(c1)c1c3c(c4c(c1n2C(=O)[C@@H](N)CCCCN)CCC4)C(=O)NC3` [Compound 6j, 3-Cyano-11-L-lysyl-5,7,8,9,10,11-hexahydrocyclopent[a]pyrrolo[3,4-c]carbazole-7(6H)-one dihydrochloride] gave an IC50 of 460 nM.

Same assay, conditions: Table 4; read-out: PARP IC50

For `O=C1NC(=O)c2c1c1c(c3[nH]c4ncccc4c23)CCC1` [Compound 8h], the IC50 was 3 nM.

Same assay, conditions: Table 7; read-out: PARP IC50

`COc1cccc2[nH]c3c4c(c5c(c3c12)C(=O)NC5=O)CCC4` [Compound 14b] showed an IC50 of 19 nM.

Same assay, conditions: Table 18; read-out: PARP IC50

Going from `CCN(CC)CCOc1cccc2[nH]c3c4c(c5c(c3c12)C(=O)NC5=O)CCC4` [Compound 14e] to `COCCOc1cccc2[nH]c3c4c(c5c(c3c12)C(=O)NC5=O)CCC4` [Compound 14f], the IC50 falls from 526 nM to 25 nM (21-fold). The second is the more potent here.

Compared with `CC(C)Oc1cccc2[nH]c3c4c(c5c(c3c12)C(=O)NC5=O)CCC4` [Compound 14h], `COc1ccnc2[nH]c3c4c(c5c(c3c12)C(=O)NC5=O)CCC4` [Compound 8x] is 52-fold lower in IC50: 207 nM for the first, 4 nM for the second.

Work on `COc1cccc2[nH]c3c4c(c5c(c3c12)C(=O)N(CN1CCN(C)CC1)C5=O)CCC4` [Compound 16e] yielded an IC50 of 14 nM.
